Test systems include NCI-H460 lung; EKVX NSCLC; UACC-257 melanoma; KM12 colon; 786-0 renal; SK-OV-3 ovarian; HS 578T breast; SN12C renal; HCT-15 colon; RXF 393 renal.
Test in all cases: DTP human tumour cell line panel, 48 h

Structures are written as SMILES.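 Step 1: Grow cells in 96-well plates. Step 2: Expose to compound for 48 hours at 5 concentrations. Step 3: Interpolate endpoints linearly; if unreached, use highest concentration. GI50: concentration for 50% inhibition of growth. TGI: concentration producing complete growth inhibition.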

Seven compounds from PubChem BioAssay (NCI) can be followed below.

As a reminder, the GI50 is the concentration at which growth is held to half of that of the control. What is called TGI is the concentration giving total growth inhibition. A high value points to lower sensitivity of the cells.

Turning to `Nc1ccccc1C#C/C=C\C#Cc1ccccc1[N+](=O)[O-]`, the GI50 with NCI-H460 lung was 3.59 µM; with EKVX NSCLC, 2.51 µM; in the experiment on UACC-257 melanoma, 4.98 µM; in the experiment on KM12 colon, 3.19 µM; in the experiment with 786-0 renal, 12.3 µM; in the experiment with SK-OV-3 ovarian, 9.26 µM. Moreover, the GI50 in the experiment with HS 578T breast was 4.99 µM; in the experiment on SN12C renal it was 3.18 µM; with HCT-15 colon, 0.718 µM; in the experiment on RXF 393 renal, 2.07 µM. For the same compound, the TGI was found to be 83.1 µM in the experiment on NCI-H460 lung; 17.8 µM in the experiment on EKVX NSCLC; 20 µM with UACC-257 melanoma; 70.6 µM with KM12 colon; 43.2 µM in the experiment on 786-0 renal; 60.9 µM with SK-OV-3 ovarian. For the same compound, the TGI with HS 578T breast was greater than 100 µM; in the experiment with SN12C renal it was 13.7 µM; in the experiment on HCT-15 colon, 21.7 µM; in the experiment with RXF 393 renal, 9.06 µM.
For `CCC[n+]1cc2cc(OC)c(OC)cc2c2c1-c1cc3c(cc1C2)OCO3`, the GI50 is 2.98 µM in the experiment with NCI-H460 lung; 11.9 µM in the experiment with EKVX NSCLC; 1.19 µM with UACC-257 melanoma; 2.12 µM with KM12 colon; 1.11 µM with 786-0 renal; 25.6 µM with SK-OV-3 ovarian. In addition, the GI50 with HS 578T breast was 1.63 µM; with SN12C renal, 0.638 µM; in the experiment on HCT-15 colon, 46.9 µM; in the experiment on RXF 393 renal it was 17 µM. The concentration for total growth inhibition (TGI) was 11.3 µM with NCI-H460 lung; 48 µM with EKVX NSCLC; 3.87 µM in the experiment with UACC-257 melanoma; 7.03 µM with KM12 colon; 12.3 µM in the experiment with 786-0 renal; 52.3 µM in the experiment on SK-OV-3 ovarian. Besides, the TGI with HS 578T breast is 13.6 µM; with SN12C renal, 6.84 µM; in the experiment with HCT-15 colon it was greater than 100 µM; in the experiment with RXF 393 renal it was 35.7 µM.
Take `COc1cc(/C=C2\C(=O)Nc3ccc(N(C)C)cc32)cc(OC)c1OC`: the GI50 in the experiment on NCI-H460 lung is 2.98 µM; in the experiment with EKVX NSCLC, 5.25 µM; in the experiment with UACC-257 melanoma, 6.73 µM; in the experiment with KM12 colon, 1.69 µM; in the experiment on 786-0 renal, 4.3 µM; in the experiment with SK-OV-3 ovarian, 3.55 µM. The GI50 in the experiment with HS 578T breast was 3.89 µM; in the experiment with SN12C renal it was 4.26 µM; in the experiment with HCT-15 colon it was 1.23 µM; in the experiment on RXF 393 renal it was 0.24 µM. For the same compound, the TGI in the experiment on NCI-H460 lung is greater than 29.1 µM; in the experiment on EKVX NSCLC, greater than 100 µM; with UACC-257 melanoma, greater than 100 µM; in the experiment with KM12 colon, 13.2 µM; in the experiment on 786-0 renal, 33.3 µM; in the experiment with SK-OV-3 ovarian it was 30.4 µM. The TGI was greater than 100 µM with HS 578T breast, 42.3 µM in the experiment on SN12C renal, 49.8 µM in the experiment on HCT-15 colon and 1.28 µM in the experiment on RXF 393 renal.
With `C=C1C(=O)O[C@H]2[C@H]1CC/C(COC(=O)c1cc3cc(Cl)ccc3[nH]1)=C\CC[C@@]1(C)O[C@@H]21`, the GI50 with NCI-H460 lung is 1.72 µM; in the experiment with EKVX NSCLC, 1.4 µM; in the experiment with UACC-257 melanoma, 1.7 µM; in the experiment on KM12 colon, 2.15 µM; with 786-0 renal, 1.51 µM; in the experiment with SK-OV-3 ovarian, 10.2 µM. Besides, the GI50 was 2.25 µM in the experiment with HS 578T breast, 1.7 µM in the experiment on SN12C renal, 1 µM in the experiment on HCT-15 colon and 1.38 µM in the experiment on RXF 393 renal. Moreover, the TGI in the experiment on NCI-H460 lung came to 3.53 µM; in the experiment with EKVX NSCLC, 2.91 µM; with UACC-257 melanoma, 3.2 µM; in the experiment with KM12 colon, 6.92 µM; in the experiment with 786-0 renal, 2.91 µM; in the experiment on SK-OV-3 ovarian, 21.8 µM. The TGI with HS 578T breast was determined as 6.48 µM; in the experiment on SN12C renal it was 3.57 µM; in the experiment with HCT-15 colon, 2.43 µM; in the experiment on RXF 393 renal, 2.72 µM.
Take `O=C(O)c1ccc2c(c1)CCCC(c1ccc(Cl)cc1Cl)=C2c1ccc(O[C@H]2CCN(CCCF)C2)cc1`: the GI50 is 9.27 µM in the experiment on NCI-H460 lung; 10.7 µM in the experiment on EKVX NSCLC; 14.1 µM in the experiment on UACC-257 melanoma; 7.29 µM in the experiment with KM12 colon; 12.9 µM in the experiment on 786-0 renal; 16.7 µM in the experiment on SK-OV-3 ovarian. The GI50 was 12.9 µM with HS 578T breast, 15.2 µM with SN12C renal, 6.38 µM in the experiment on HCT-15 colon and 3.38 µM in the experiment on RXF 393 renal. In addition, the TGI with NCI-H460 lung was 23.8 µM; in the experiment on EKVX NSCLC, 25.3 µM; in the experiment on UACC-257 melanoma, 30 µM; in the experiment with KM12 colon it was 20.3 µM; with 786-0 renal, 28 µM; in the experiment with SK-OV-3 ovarian it was 30.8 µM. Also, the total growth inhibition concentration (TGI) was determined as 31.8 µM in the experiment with HS 578T breast, 31 µM with SN12C renal, 20.1 µM in the experiment with HCT-15 colon and 17 µM in the experiment on RXF 393 renal.
Consider `O=C1c2cc(Cl)ccc2-c2c1c1ccc([N+](=O)[O-])cc1c(=O)n2CCCBr`, for which the GI50 in the experiment with NCI-H460 lung was 0.931 µM; in the experiment on EKVX NSCLC, greater than 100 µM; in the experiment on UACC-257 melanoma, 41.4 µM; in the experiment with KM12 colon it was 20.8 µM; with 786-0 renal it was 2.62 µM; in the experiment with SK-OV-3 ovarian, 7.79 µM. In addition, the GI50 in the experiment on HS 578T breast is greater than 100 µM; in the experiment on SN12C renal, 2.5 µM; in the experiment with HCT-15 colon, 31.2 µM; in the experiment on RXF 393 renal it was 17.6 µM. For the same compound, the concentration for total growth inhibition (TGI) is greater than 100 µM with NCI-H460 lung; greater than 100 µM in the experiment with EKVX NSCLC; greater than 100 µM in the experiment with UACC-257 melanoma; greater than 100 µM in the experiment on KM12 colon; 9.31 µM with 786-0 renal; greater than 100 µM in the experiment on SK-OV-3 ovarian. The TGI is greater than 100 µM in the experiment on HS 578T breast, 8.89 µM with SN12C renal, greater than 100 µM in the experiment on HCT-15 colon and greater than 100 µM in the experiment on RXF 393 renal.
Consider `COc1ccc(Cn2cc3c(c2)-c2oncc2CC3)cc1`, for which the GI50 in the experiment on NCI-H460 lung is 3.47 µM; with EKVX NSCLC, 12.7 µM; in the experiment with UACC-257 melanoma, 12.3 µM; in the experiment on KM12 colon, 2.62 µM; with 786-0 renal, 13.2 µM; in the experiment with SK-OV-3 ovarian it was 4.92 µM. Further, the GI50 is 3 µM in the experiment on HS 578T breast, 10.1 µM in the experiment with SN12C renal, 4.33 µM in the experiment with HCT-15 colon and 5.25 µM in the experiment with RXF 393 renal. The TGI is 16.5 µM in the experiment on NCI-H460 lung; greater than 100 µM in the experiment with EKVX NSCLC; greater than 85.1 µM in the experiment with UACC-257 melanoma; 20.7 µM with KM12 colon; greater than 100 µM with 786-0 renal; greater than 82.1 µM with SK-OV-3 ovarian. The TGI was 13.8 µM with HS 578T breast, greater than 100 µM in the experiment with SN12C renal, greater than 70.6 µM with HCT-15 colon and 28.1 µM in the experiment with RXF 393 renal.
